Laboratory results taken from ChEMBL document CHEMBL2021896, “A novel pyrimidine derivatives with aryl urea, thiourea and sulfonamide moieties: synthesis, anti-inflammatory and antimicrobial evaluation” (2012).
The source made the active and inactive calls. The rule behind the calls is not given here.

What was measured:
[1] = test system: THP-1; test: Antiinflammatory activity in human PMA-stimulated THP1 cells assessed as inhibition of LPS-induced IL-6 production at 1 uM treated 30 mins before LPS challenge measured after 24 hrs by ELISA; format: functional
[2] = test system: THP-1; test: Antiinflammatory activity in human PMA-stimulated THP1 cells assessed as inhibition of LPS-induced TNFalpha production at 1 uM treated 30 mins before LPS challenge measured after 24 hrs by ELISA; format: functional
[3] = test system: Staphylococcus aureus; test: Antibacterial activity against Staphylococcus aureus up to 200 ug/ml by agar well diffusion method; format: functional, organism-based
[4] = test system: Escherichia coli; test: Antibacterial activity against Escherichia coli up to 200 ug/ml by agar well diffusion method; format: functional, organism-based
[5] = test system: Bacillus subtilis; test: Antibacterial activity against Bacillus subtilis up to 200 ug/ml by agar well diffusion method; format: functional, organism-based
[6] = test system: Salmonella typhimurium; test: Antibacterial activity against Salmonella typhimurium up to 200 ug/ml by agar well diffusion method; format: functional, organism-based; settings: Salmonella enterica subsp. enterica serovar Typhimurium
[7] = test system: Aspergillus niger; test: Antifungal activity against Aspergillus niger up to 200 ug/ml by agar well diffusion method; format: functional, organism-based
[8] = test system: Fusarium solani; test: Antifungal activity against Fusarium solani up to 200 ug/ml by agar well diffusion method; format: functional, organism-based
[9] = test system: Candida albicans; test: Antifungal activity against Candida albicans up to 200 ug/ml by agar well diffusion method; format: functional, organism-based
[10] = test system: THP-1; test: Antiinflammatory activity in human PMA-stimulated THP1 cells assessed as inhibition of LPS-induced IL-6 production at 10 uM treated 30 mins before LPS challenge measured after 24 hrs by ELISA; format: functional
[11] = test system: THP-1; test: Antiinflammatory activity in human PMA-stimulated THP1 cells assessed as inhibition of LPS-induced TNFalpha production at 10 uM treated 30 mins before LPS challenge measured after 24 hrs by ELISA; format: functional
[12] = test system: Aspergillus flavus; test: Antifungal activity against Aspergillus flavus up to 200 ug/ml by agar well diffusion method; format: functional, organism-based

## C[C@@H]1C[C@H]2[C@@H]3CCC4=CC(=O)C=C[C@]4(C)[C@@]3(F)[C@@H](O)C[C@]2(C)[C@@]1(O)C(=O)CO [DEXAMETHASONE]
[1]
  inhibition at 1 µM: 86%
[2]
  inhibition at 1 µM: 72%

## Cc1ccccc1NC(=S)Nc1ccc(-c2cc(Nc3cccc(C(F)(F)F)c3)ncn2)cc1
[3]
  Activity: inactive
[4]
  Activity: inactive
[5]
  Activity: inactive
[6]
  Activity: inactive
[7]
  Activity: inactive
[8]
  Activity: inactive
[9]
  Activity: inactive
[10]
  inhibition at 10 µM: 0%
[11]
  inhibition at 10 µM: 0%
[12]
  Activity: inactive
